Experimental data reported in patent EP1708721B1, “MYOCARDIAL PERFUSION IMAGING USING ADENOSINE RECEPTOR AGONISTS” (Gilead Sciences, Inc., priority 2004, dated 2005).

Assays:
awake rats = assay: Example 5: sympathoexcitation, heart rate, blood pressure and plasma catecholamines after i.v. bolus; format: in vivo
Procedure: The present study was carried out to determine whether CVT-3146, a selective A2A adenosine receptor agonist, causes sympathoexcitation. CVT-3146 (0.31µg/kg-50 µg/kg) was given as a rapid i.v. bolus to awake rats and heart rate (HR) and blood pressure (BP) were monitored. CVT-3146 caused an increase in BP and systolic pressure (SP) at lower doses while at higher doses there was a decrease in BP and SP. […] The increase in HR was evident at the lowest dose of CVT-3146 at which there was no appreciable decrease in BP. ZM241385 (30 µg/kg , N=5), an A2A receptor antagonist, attenuated the decrease in BP (CVT-3146: 14±3%, ZM: 1±1 %) and the increase in HR (CVT: 27±3%, ZM: 18±3%) caused by CVT-3146. Pretreatment with metoprolol (MET, 1 mg/kg, n=5), a beta-blocker, attenuated the increase in HR (CVT: 27±3%, MET: 15±2%), but had no effect on hypotension caused by CVT-3146. In the presence of hexamethonium (HEX, 10 mg/kg, n=5), a ganglionic blocker, the tachycardia was prevented (CVT: 27±3%, HEX: -1±2%), but BP was further reduced (CVT: -11±2%, HEX: -49±5%).

humans = assay: Example 1: open label study, CBFv by Doppler flow wire after IV bolus in catheterization patients; format: in vivo; conditions: intracoronary (IC) injection of 18 µg
Procedure: The purpose of this open label study was to determine the magnitude and duration of effect of CVT-3146 (10-500 µg) on CBFv in humans.
METHODS: Patients undergoing a clinically indicated coronary catheterization with no more than a 70% stenosis in any coronary artery and no more than a 50% stenosis of the study vessel had CBFv determined by Doppler flow wire. Study subject were selected after measuring baseline and peak CBFv after an intracoronary (IC) injection of 18 µg of Ado. Twenty-three patients, who were identified as meeting the study criteria of having a peak to baseline CBFv ratio of ≥ 2.5 in response to Adenosine, received a rapid (≤ 10 sec) peripheral IV bolus of CVT-3146; Doppler signals were stable and interpretable over the time-course of the increase in CBFv in 17 patients.

awake dogs = assay: Example 8: vasodilator effects in different vascular beds of chronically instrumented dogs; format: in vivo; conditions: 250 µg/kg
From the text: In this study the vasodilator effects of CVT-3146 were compared to those of ADO in different vascular beds in awake dogs. Dogs were chronically instrumented for measurements of the blood flow in coronary (CBF), mesenteric (MBF), hind limb (LBF), and renal (RBF) vascular beds, and hemodynamics.

[1] = system: subjects (26 men, 9 women); assay: Example 6: stress/rest SPECT myocardial perfusion imaging, adenosine versus CVT-3146; format: in vivo, human; conditions: SPECT MPI, CVT-3146 400 or 500 mcg IV bolus, A infusion
Procedure: To determine the ability of CVT-3146 to produce coronary hyperemia and accurately detect CAD, 35 subjects (26 men, 9 women; 67±10 years) underwent both A and CVT-3146 stress/rest MPI, with 10.0±9.1 days between studies. […] CVT-3146 [400 mcg (n=18), 500 mcg (n=17)] was administered as an IV bolus immediately followed by a saline flush, and then a Tc-99m radiopharmaceutical [sestamibi (n=34), tetrofosmin (n=1)]. SPECT images were uniformly processed, intermixed with control studies (normal and fixed-only defects), and interpreted by three observers in a blinded fashion using a 17-segment model. Quantitative analysis was also performed using 4D MSPECT. In addition to three separate readings, a consensus interpretation was performed and then a direct, same-screen comparison of A and CVT-3146 images undertaken to determine relative differences, using 5 regions per study.

[2] = pretreatment with metoprolol 1 mg/kg, n=5
[3] = in the presence of hexamethonium 10 mg/kg, n=5

For `COCCc1ccc(OCC(O)CNC(C)C)cc1` (stereo not shown) [metoprolol], the “effect on hypotension caused by CVT-3146” value (awake rats; [2]) was “no effect” and the “increase in HR caused by CVT-3146” value (awake rats; [2]) was 15±2%.

With `Nc1ncnc2c1ncn2[C@@H]1O[C@H](CO)[C@@H](O)[C@H]1O` [adenosine] the “peak to baseline ratio (CBFv)” value (humans) was 3.2 ± 0.5, the “duration for CBF above 2-fold of the baseline” value (awake dogs) was 16 ± 3 s and the “summed scores following stress, quantitative methods of analysis” value ([1]; 4D MSPECT) was 13.7±1.5. For the same molecule, the “summed scores following stress, visual” value ([1]; 17-segment model) was 13.9±1.5.

In the case of `Nc1nc(NCCc2ccc(O)cc2)nc2nc(-c3ccco3)nn12` [ZM241385], the “decrease in BP caused by CVT-3146” value (awake rats; with ZM241385 30 µg/kg, N=5) is reported as 1±1% and the “increase in HR caused by CVT-3146” value (awake rats; with ZM241385 30 µg/kg, N=5) is reported as 18±3%.

With `C[N+](C)(C)CCCCCC[N+](C)(C)C` [hexamethonium] the “BP (change) caused by CVT-3146” value (awake rats; [3]) was -49±5% and the “tachycardia (HR change) caused by CVT-3146” value (awake rats; [3]) was -1±2%.
